# ± gives the standard deviation of the reports.
row,Structure (SMILES),glass transition temperature [°C]
1,*CC(*)c1cccc(Cl)c1 (repeat unit),90.00
2,*CC(F)(F)C(F)(F)COC(=O)NCC(F)(F)C(F)(F)C(F)(F)C(F)(F)CNC(=O)O* (repeat unit),38.00
3,*Oc1ccc(NC(=O)c2cc(NC(=O)CCCCCCCCCCN3C(=O)c4ccccc4C3=O)cc(C(=O)Nc3ccc(*)cc3)c2)cc1 (repeat unit),160.00
4,*Oc1ccc(C(C)(C)c2ccc(OC(=O)c3cccc(C(*)=O)c3)cc2)cc1 (repeat unit) [Poly(bisphenol A isophthalate)],184.42 ± 6.3
5,*Oc1ccc2c(c1)C(C)(c1ccc(OC(=O)c3cccc(C(*)=O)c3)cc1)CC2(C)C (repeat unit),230.50
6,*CCCCCCCCCN1C(=O)c2ccc(C(c3ccc4c(c3)C(=O)N(*)C4=O)(C(F)(F)F)C(F)(F)F)cc2C1=O (repeat unit),135.00
7,*Oc1ccc(C(=O)OCCN(CCOC(=O)c2ccc(OC3(F)C(*)(F)C(F)(F)C3(F)F)cc2)c2ccc(/C=C/C3=CC(=C(C#N)C#N)CC(C)(C)C3)cc2)cc1 (repeat unit),143.00
8,*Oc1ccc(-c2ccc(OC(=O)c3ccc(C(=O)c4ccc(C(*)=O)cc4)cc3)c(-c3ccccc3)c2)cc1-c1ccccc1 (repeat unit),184.50
9,*CCOCCOC(=O)CCCCCCCCC(=O)O* (repeat unit),-74.50
10,*Oc1ccc(C(=O)c2ccc(C(=O)c3ccc(Oc4ccc(Cc5ccc(*)cc5)cc4)cc3)cc2)cc1 (repeat unit),120.00
11,*c1ccc(Oc2ccc(C(=O)c3ccc(Oc4ccc(C(=O)c5ccc(Oc6ccc(-c7cc(*)n(-c8ccccc8)n7)cc6)cc5)cc4)cc3)cc2)cc1 (repeat unit),190.00
12,*CC(*)c1nc(C)nc(C)n1 (repeat unit),70.00
13,*c1ccc(Oc2ccc(Oc3ccc(N4C(=O)c5ccc(Oc6c(C)cc(C(C)(C)c7cc(C)c(Oc8ccc9c(c8)C(=O)N(*)C9=O)c(C)c7)cc6C)cc5C4=O)cc3)c(C(C)(C)C)c2)cc1 (repeat unit),244.00
14,*O[Si](C)(C)CCC/N=C1C=C/C(=N/CCC[Si](*)(C)C)c2c(O)ccc(O)c2\1 (repeat unit),32.90
15,*C1C(=O)OC(=O)C1C1C2CC(C(=O)OCCOCC)C(C2)C1* (repeat unit),155.00
16,*Oc1ccc(C(CC)(c2ccccc2)c2ccc(OC(*)=S)cc2)cc1 (repeat unit),173.00
17,*c1ccc(Oc2ccc(C(=O)c3cccc(C(=O)c4ccc(Oc5ccc(-c6nc7ccccc7n6-c6ccc(-n7c(*)nc8ccccc87)cc6)cc5)cc4)c3)cc2)cc1 (repeat unit),219.00
18,*CCCCCCCCCCN1C(=O)c2ccc(C(c3ccc4c(c3)C(=O)N(*)C4=O)(C(F)(F)F)C(F)(F)F)cc2C1=O (repeat unit),123.00
19,*C(=O)c1ccc2c(c1)C(=O)N(c1ccc(Oc3ccc(C(=O)c4ccc(Oc5ccc(N6C(=O)c7ccc(*)cc7C6=O)cc5)cc4)cc3)cc1)C2=O (repeat unit),252.00
20,*C(=O)c1ccc(C(=O)c2ccc3c(c2)C(=O)N(c2ccc(C(=O)c4ccc(C(=O)c5ccc(N6C(=O)c7ccc(*)cc7C6=O)cc5)cc4)cc2)C3=O)cc1 (repeat unit),260.00

row,Structure (SMILES),glass transition temperature [°C]
1,*c1cccc(N2C(=O)c3ccc(-c4ccc5c(c4)C(=O)N(*)C5=O)cc3C2=O)c1 (repeat unit),333.2 ± 39
2,*c1ccc(Oc2ccc(S(=O)(=O)c3ccc(Oc4ccc(-c5c6c(c(*)c7ccccc57)C(=O)N(c5ccc(Cl)cc5)C6=O)cc4)cc3)cc2)cc1 (repeat unit),280.00
3,*c1ccc2c(c1)C(=O)N(c1ccc(OCCN(CCOc3ccc(N4C(=O)c5ccc(C(*)(C(F)(F)F)C(F)(F)F)cc5C4=O)cc3)c3ccccc3)cc1)C2=O (repeat unit),170.00
4,*c1ccc2c(c1)C(=O)N(c1ccc(Oc3cc(C(C)(C)C)c(Oc4ccc(N5C(=O)c6ccc(C(*)(C(F)(F)F)C(F)(F)F)cc6C5=O)cc4)cc3C(C)(C)C)cc1)C2=O (repeat unit),277.00
5,*CCCCCCCCCCOc1ccc(/C=C/c2ccc(OCCCCCCCCCCOP(=O)(O*)OCCCCCCCCCCOc3ccc(/N=N/c4ccc([N+](=O)[O-])cc4)cc3)cc2)cc1 (repeat unit),50.00
6,*CCCCNC(=O)c1ccc(C(=O)N*)c(Oc2ccccc2)c1 (repeat unit),125.00
7,*CC(OC)C1C(=O)OC(=O)C1* (repeat unit),153.50
8,*CCCCC(=O)O* (repeat unit),-66.00
9,*c1cccc(-c2cc(C(=O)Nc3ccc(OC(=O)c4cc(OCCCCCCCCCCCC)c(OCCCCCCCCCCCC)c(OCCCCCCCCCCCC)c4)cc3)cc(-c3cccc(N4C(=O)CC(C5C=C(C)C6C(=O)N(*)C(=O)C6C5)C4=O)c3)c2)c1 (repeat unit),270.00
10,*CC(*)Cc1ccccc1 (repeat unit),70.00
11,*CC/C=C(/*)CCCCCCCCCC (repeat unit),-53.00
12,*CC(CS(=O)(=O)C(C)C)O* (repeat unit),64.00
13,*CCCCCCCCCCC(Cl)C(*)Cl (repeat unit),-32.00
14,*CCCCCOc1cccc(NC(=O)c2cccc(C(=O)Nc3cccc(O*)c3)c2)c1 (repeat unit),131.50
15,*OP(=O)(Oc1ccc([N+](=O)[O-])cc1)Oc1c(C)cc(S(=O)(=O)c2cc(C)c(*)c(C)c2)cc1C (repeat unit),173.00
16,*c1ccc(-c2nc3cc(Oc4ccc(NC(=O)CN5C(=O)c6ccc(C(c7ccc8c(c7)C(=O)N(CC(=O)Nc7ccc(Oc9ccc%10nc(-c%11ccccc%11)c(-c%11ccc(N%12C(=O)c%13ccc%14c%15c(ccc(c%13%15)C%12=O)C(=O)N(*)C%14=O)cc%11)nc%10c9)cc7)C8=O)(C(F)(F)F)C(F)(F)F)cc6C5=O)cc4)ccc3nc2-c2ccccc2)cc1 (repeat unit),306.00
17,*C(=O)c1ccc2c(c1)C(=O)N(c1ccc(/C=C/c3ccc(N4C(=O)c5ccc(*)cc5C4=O)cc3)cc1)C2=O (repeat unit),303.00
18,*CC(CCCCCC)O* (repeat unit),-67.00
19,*CCCCCCCCN1C(=O)c2ccc(C(c3ccc4c(c3)C(=O)N(*)C4=O)(C(F)(F)F)C(F)(F)F)cc2C1=O (repeat unit),155.00
20,*c1cc(N2C(=O)c3ccc(-c4ccc5c(c4)C(=O)N(*)C5=O)cc3C2=O)c(O)cc1O (repeat unit),343.00

row,Structure (SMILES),glass transition temperature [°C]
1,*C(=O)c1ccc2c(c1)C(=O)N(c1ccc3c(c1)Cc1cc(N4C(=O)c5ccc(*)cc5C4=O)ccc1-3)C2=O (repeat unit),341.50
2,*c1ccc(CC(=O)Nc2cccc(NC(=O)Cc3ccc(-c4sc(*)c(-c5ccccc5)c4-c4ccccc4)cc3)c2)cc1 (repeat unit),228.00
3,*Oc1ccc(S(=O)(=O)c2ccc(OC(=O)OC3C(C)(C)C(OC(*)=O)C3(C)C)cc2)cc1 (repeat unit),162.00
4,*CCOCCOCCOC(=O)C1CCC(C(=O)O*)CC1 (repeat unit),-25.00
5,*c1ccc(OCCOc2ccc(/C=C/c3ccc([N+](=O)[O-])cc3)c(OCCOc3ccc(-c4nc5ccc(Oc6ccc7nc(*)c(-c8ccccc8)nc7c6)cc5nc4-c4ccccc4)cc3)c2)cc1 (repeat unit),187.00
6,*Oc1ccc(C(=O)Nc2ccc(S(=O)(=O)c3ccc(NC(=O)c4ccc(Oc5ccc(C(=O)c6ccc(S(=O)(=O)c7ccc(C(=O)c8ccc(*)cc8)cc7)cc6)cc5)cc4)cc3)cc2)cc1 (repeat unit),260.00
7,*C(=O)Oc1ccc(-c2ccc(OC(=O)c3ccc4c(c3)C(=O)N(c3ccc(-c5ccc(N6C(=O)c7ccc(*)cc7C6=O)cc5C)c(C)c3)C4=O)cc2C)c(C)c1 (repeat unit),177.00
8,*c1ccc2c(c1)C(=O)N(c1cc(OCCCCCCCCCCCC)cc(N3C(=O)c4ccc(C(*)(C(F)(F)F)C(F)(F)F)cc4C3=O)c1)C2=O (repeat unit),165.00
9,*c1ccc(-c2ccc(N(*)c3cc(C(F)(F)F)cc(C(F)(F)F)c3)cc2)cc1 (repeat unit),209.00
10,*C(=O)Nc1c(C)cc(Cc2cc(C)c(NC(=O)c3ccc4c(c3)C(=O)N(c3ccc(/N=N/c5ccc([N+](=O)[O-])cc5)c(N5C(=O)c6ccc(*)cc6C5=O)c3)C4=O)c(C)c2)cc1C (repeat unit),280.00
11,*Nc1ccc(Cc2ccc(NC(=O)NCCCCCCCCCCCCCCCCCCNC(*)=O)cc2)cc1 (repeat unit),48.00
12,*c1ccc2oc(-c3cccc(-c4nc5cc(C(*)(C(F)(F)F)C(F)(F)F)ccc5o4)c3)nc2c1 (repeat unit),301.00
13,*CC(*)(C)C(=O)OCC(F)(F)C(F)(F)C(F)(F)C(F)(F)C(F)(F)C(F)(F)C(F)(F)C(F)F (repeat unit),-15.00
14,*CCCCCCOC(=O)Nc1ccc(Cc2ccc(NC(=O)O*)cc2)cc1 (repeat unit),71.00
15,*c1ccc(Oc2cccc(Oc3ccc(N4C(=O)c5cccc(Oc6ccc(C(=O)c7ccc(Oc8cccc9c8C(=O)N(*)C9=O)cc7)cc6)c5C4=O)cc3)c2)cc1 (repeat unit),216.00
16,*CC(OCC)C1(C)C(=O)OC(=O)C1(*)C (repeat unit),244.00
17,*C(=O)Nc1cccc(NC(=O)c2ccc3[nH]c(-c4ccc(-c5nc6cc(*)ccc6[nH]5)cc4)nc3c2)c1 (repeat unit),294.00
18,*CC(*)C(=O)Oc1ccc(C)cc1 (repeat unit),42.50
19,*CCOc1ccc(OC(=O)c2ccc(C(=O)Oc3ccc(O*)cc3)c(OCCCCC)c2)cc1 (repeat unit),95.00
20,*c1ccc(C(c2ccccc2)c2ccc(-n3c(=O)c4cc5c(=O)n(*)c(=O)c5cc4c3=O)cc2)cc1 (repeat unit),321.00

# From the PolyMetriX glass transition set
